From patent US20160295854A1, “COMPOSITION AND METHOD FOR EX-VIVO IMMUNOMODULATION AND/OR PRESERVATION OF ORGANS, METHODS AND USE” (UNIAO BRASILEIRA DE EDUCACAO E ASSISTENCIA , MANTENEDORA DA …, priority 2014, published 2016)

Experiments:
[1] = system: cutaneous allograft (B6 donor skin in BALB/c recipients); assay: Murine model of cutaneous allograft, graft immersion-treatment; assay type: in vivo, mice (Mus musculus)
From the text: A method for treating grafts, including allografts, was developed by the inventors of the present invention. Thus, the method treats the grafts (that may be full organs) instead of recipient that will receive the graft, using as tool a classic murine model of skin transplantation and well established. Such method, to the light of the inventors, may be considered as new and inventive. The said model consists of a complete incompatibility of MHC molecules and was described by BILLINGHAM & MEDAWAR (1951).
BALB/c recipients, which express the MHC II I-A^d molecule, are anaesthetized and the dorsal stem hairs are removed. In the waxed area, 1 cm^2 of the skin was removed in each recipient mouse and the donor tail skin was sutured in the exposed area. The animals are maintained in individual cages and daily monitored. The graft rejection is confirmed by observing the cyanosis, erythema, erosion and cutaneous graft loss.
This model consists of a complete incompatibility of MHC molecules and was described by BILLINGHAM & MEDAWAR (1951). In this model, the donor mouse B6, which expresses the MHC II I-A^b molecule, is sacrificed. […] After this period, the grafts were sutured in the BALB/c recipients' back, who express the MHC II I-A^d molecule, and the rejection clinical progression is daily monitored.
After that, the grafts were sutured in the BALB/c (I-Ad) animals' back. The animals were daily monitored. ***, p<0.0001. n=22-24 mice per group. The results achieved putting the seven independent experiments together.
After this, these grafts were sutured in BALB/c recipients WT and their rejection were daily monitored.
After this, the grafts were sutured in the BALB/c (I-Ad) animals' back. The animals were daily monitored. *, p<0.05. n=4 mice per group.

[2] = system: CD4+ and CD8+ T cells in recipient DLN; assay: Recipient responses in DLN (cell count, Ki67 proliferation, Tregs); assay type: in vivo, mice (Mus musculus)
Experimental: Cells of the donor mice (I-A^b+ or GFP+) were detected in the axillary lymph nodes of the recipients, 24 h or 96 h after the transplantation by flow cytometry. The transplanted mice were sacrificed, the axillary lymph nodes were removed and macerated in a nylon screen with a mean that had D Collagenase (Roche®). We achieved a cell suspension that had the cells in contact with Tripan blue and analyzed by flow cytometry.
For analyzing the recipients T cells, the cells were marked for CD4 (GK1.5), CD8a (53-6.7), Foxp3 (MF23), Ki67 (B56) achieved from BD Biosciences. The specific transcription factor marking of Tregs Foxp3 was performed using the kit Mouse Foxp3 Buffer Set (BD Biosciences), according to the manufacturer instructions. The levels of phosphorylated ERK and STAT3 were determined using antibodies for p-ERK1/2 and p-STAT3 (BD Biosciences) in BMDCs previously fixed and permeablized. The cells were subsequently analyzed in the flow cytometer FACSCanto II (BD Biosciences) with the BD FACSDiva (BD Biosciences) program. The data achieved were analyzed with the Flowjo program (version 7.6.5, Tree Star).
When analyzed the median responses in the Recipients' DLNs, it was noted, for inventors surprise, which animals that received grafts treated with OVA presented organs in a greater size when compared with animals that received grafts treated with Hsp70.
For analyzing this hypothesis, the proliferation of these cells was analyzed by marking with Ki67 in the transplanted animals DLN. Ki67 is a molecule having a role in the cellular cycle and is expressed by any organism cell that is proliferating. […] An increase in the number of regulating T cells (Tregs) may reduce the alloreactive T cells proliferation in the recipient DLN, delaying the rejection to grafts. […] These findings are in accordance with the observation that immature DCs administration in human leads to an inhibition of the CD8+ T cells effector functions.
FIG. 7. […]

[3] = system: IL-10; assay: IL-10 production by DCs (real time PCR and CBA); assay type: cell-based, mice (Mus musculus)
[4] = system: MHC II; assay: MHC II expression in LPS-activated BMDCs; assay type: cell-based, mice (Mus musculus); settings: BMDCs treated or not with LPS 24 h, then treated or not with Hsp70 for additional 24 h
[5] = system: cutaneous allograft (B6 donor skin in BALB/c recipients); assay: Cutaneous allograft model, graft immersion followed by topic application; assay type: in vivo, mice (Mus musculus)
From the text: That is, animals that received grafts treated with Hsp70 receive the local application of a Hsp70 solution and the same for OVA.
After this, the grafts were sutured in BALB/c (I-A^d) animals' back. […] The animals were daily monitored. (A) Schematic representation of the treatment strategy used in the experiment. (B) Photographic record of the clinical progression of the acute rejection in groups Hsp70 and OVA. […] Data achieved from previous experiments.

[6] = system: donor cells (I-A^b+ or GFP+) in recipient DLN; assay: Donor migratory cells screened in the recipient DLN by flow cytometry; assay type: in vivo, mice (Mus musculus)
[7] = system: CD86; assay type: cell-based, mice (Mus musculus); settings: BMDCs treated or not with LPS 24 h, then treated or not with Hsp70 for additional 24 h

Substance: Hsp70: recombinant Mycobacterium tuberculosis Hsp70 (DnaK) produced in Escherichia coli BL21, LPS removed
- graft acceptance after immersion with Hsp70 or peptides (FIG. 17) ([1]; 60 μg/ml Hsp70 or 15 μg/ml peptide, 60 minutes at 4° C., compared to OVA peptide and peptide 5): inhibited the acute rejection
- graft survival compared with grafts treated with OVA (FIG. 1) ([1]; 60 μg/ml, 60 minutes at 4° C.): greater survival
- graft protection with grafts from donors IL-10 KO (FIG. 11 E) ([1]; IL-10 KO grafts, 60 μg/ml, 60 minutes): cancelled the protection
- Survival average ([1]; graft immersed in 60 μg/mL for 60 minutes, seven independent experiments): 20.0 days
- lengthening of graft survival with TLR2 KO grafts (FIG. 12 D) ([1]; mouse, in vivo): dependent on the TLR2 expression in the graft
- survival of WT grafts in WT or TLR2 KO recipients (FIG. 12 E) ([1]; mouse, in vivo): very similar survival
- total of cells of the Recipients' DLNs (FIG. 7 A) ([2]; days 1, 4, 7 and 10 after transplantation, vs OVA): lower absolute number of cells
- CD4+ and CD8+ T cells proliferation (Ki67) in recipient DLN (FIG. 7 B, C) ([2]; graft treated by immersion): reduction marked
- Tregs in the recipient DLN (FIG. 7 D) ([2]; graft treated by immersion): not detected a significant increase
- IL-10 production, mRNA and protein level (FIG. 11 A) ([3]; DCs isolated from mice lymph nodes, 24 h): induce the IL-10 production
- IL-10 mRNA and protein in DCs TLR2 KO (FIG. 12 A, B) ([3]; TLR2 KO compared with DCs WT): significant reduction of the mRNA expression
- percentage of CD11c+ I-Ab^hi cells (FIG. 4) [4]: revert partially
- graft survival, immersion plus topic application until day 7 (FIG. 18) ([5]; compared to animals treated with OVA): much bigger
- Survival median ([5]; group '- 1 day'): 17.0 days
- MHC II levels in DCs CD103+ migrating from the graft to the recipient DLN (FIG. 9 B) ([6]; 24 h or 96 h after transplantation): significant reduction of MHC II levels
- CD80 and CD86 levels of donor DCs (FIG. 6 C) ([6]; 24 h or 96 h after transplantation, vs OVA): reduced levels of CD80 and CD86
- CCR7 expression in migratory donor DCs ([6]; 24 hours after transplantation, vs OVA): upper levels of CCR7
- CCR7 expression in migratory donor DCs ([6]; four days after transplantation, vs OVA): did not differ
- MHC II expression in donors DCs in recipient DLN (FIG. 6 A, B) ([6]; graft treated by immersion, vs OVA): MHC II expression reduction
- donor cells (I-A^b+ or GFP+) in the recipient DLN ([6]; one and four days after transplantation, vs OVA): not noted any difference
- percentage of CD11c+ CD86^hi cells (FIG. 5) [7]: revert partially
